The IC50 is the concentration that inhibits the measured activity by half. A higher IC50 goes with a need for much substance.

Results on 23 compounds are retold here after patent US20240262819A1, “NOVEL COMPOUNDS HAVING INHIBITORY ACTIVITY AGAINST GLUCOSYLCERAMIDE SYNTHASE OR PHARMACEUTICALLY ACCEPTABLE SALT THEREOF, PROCESSES FOR PREPARING THE SAME, AND PHARMACEUTICAL COMPOSITIONS COMPRISING THE SAME” (YUHAN CORPORATION, priority 2021, published 2024).

Test [1] relates to GM1 production in Jurkat cells. Nature of the test: cells. The test is classed as cell-based. The note with it: Homo sapiens, Jurkat, 72 h.
For test [2], the target named is glucosylceramide synthase (GCS) (Homo sapiens (Human), UniProt Q16739). Nature of the test: Evaluation of inhibitory activities against GCS (A549 cell lysate, NBD C6-ceramide, HPLC). Format: biochemical. Here is the method: The inhibitory activities of the compounds of the present invention against GCS were evaluated, as follows, according to the method described in the known literature (Hayashi Y et al., A sensitive and reproducible assay to measure the activity of glucosylceramide synthase and lactosylceramide synthase using HPLC and fluorescent substrates, Analytical Biochemistry 345 (2005) 181-186). Ibiglustat, known as a GCS inhibitor, was used as a control.
After the cells attached to the culture dish were washed with phosphate buffered saline (PBS), the cells were scraped off with a cell scraper and then centrifuged (4000 rpm, 3 min, 4 °C) to collect the cells in a 50 ml tube. The cell pellets were suspended in a lysis buffer (50 mM HEPES, pH 7.3, containing 1× the protease/phosphatase inhibitor cocktail), lysed by sonication, and then the lysate was centrifuged (13000 rpm, 10 min, 4° C.). The obtained supernatant was used for the quantitative analysis of proteins. The amount of proteins was measured using the BCA protein assay kit, using bovine serum albumin as a standard.
Enzymatic reactions were initiated by sequentially adding the following reaction materials to a 96 deep-well plate. Thereafter, the enzymatic reactions were performed at 37° C. for 90 minutes.
The enzymatic reactions were stopped by adding 100 μl of chloroform/methanol (2:1, v/v). […] The lower layer (50 μl) was transferred to a new 96 deep-well plate and dried with a reduced concentrator.
Lipids were dissolved in 100 μl of isopropyl alcohol/n-hexane/H2O (55:44:1, v/v/v) and then transferred to a glass vial for HPLC (Agilent, 8004-HP-H/i3u). The sample (100 μl) was automatically loaded onto a normal-phase column (Intersil SIL 150A-5, 4.6×250 mm, GL Sciences, Japan) and then eluted at a flow rate of 2.0 ml/min with isopropyl alcohol/n-hexane/H2O (55:44:1, v/v/v). The fluorescence thereof was measured with a fluorescence detector (Agilent, 1260 FLD Spectra), using 470 nm and 530 nm as excitation and emission wavelengths, respectively.
Data analysis was performed by the following equations.
% Area (Sample)=Area (GlcCer)/[Area (Cer)+Area (GlcCer)]×100%
GCS activity=[Area (Sample)−Area (ibiglustat)]/[Area (DMSO)−Area (ibiglustat)]×100
The obtained % GCS activity data was analyzed with the software GraphPad Prism (Ver 5.01) to calculate the IC50 values.

Molecules are shown by their SMILES.

Sequence of glucosylceramide synthase (GCS) (Q16739 whole entry): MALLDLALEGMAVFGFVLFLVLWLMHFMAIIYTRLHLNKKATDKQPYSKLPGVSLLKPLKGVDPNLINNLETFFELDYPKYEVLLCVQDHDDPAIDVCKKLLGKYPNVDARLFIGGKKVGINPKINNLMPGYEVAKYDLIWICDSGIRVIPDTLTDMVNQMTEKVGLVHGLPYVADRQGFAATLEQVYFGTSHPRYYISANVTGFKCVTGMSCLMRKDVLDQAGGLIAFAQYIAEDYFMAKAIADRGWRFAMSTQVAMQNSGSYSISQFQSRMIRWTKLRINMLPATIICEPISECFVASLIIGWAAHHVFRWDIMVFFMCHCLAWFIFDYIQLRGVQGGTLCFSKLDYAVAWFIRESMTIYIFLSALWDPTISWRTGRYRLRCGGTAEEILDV

Regarding `CC(C)Cc1ccc(-c2cc3c(cc2F)[C@H](NC(=O)O[C@@H]2CN4CCC2CC4)C(C)(C)CC3)cc1` [Example 174, (S)-quinuclidin-3-yl((R)-7-fluoro-6-(4-isobutylphenyl)-2,2-dimethyl-1,2,3,4-tetrahydronaphthalen-1-yl)carbamate], the IC50 in test [1] came out at 0.9 nM; in test [2], 0.35 nM.
The matching figures for `CCc1ccc(-c2ccc3c(c2)CCC(C)(C)[C@H]3NC(=O)O[C@@H]2CN3CCC2CC3)cc1` [Example 139, (S)-quinuclidin-3-yl((R)-6-(4-ethylphenyl)-2,2-dimethyl-1,2,3,4-tetrahydronaphthalen-1-yl)carbamate]: 3.01 nM and 0.26 nM.
The like results for `CCc1ccc(-c2ccc3c(c2)CC(C)(C)[C@H]3NC(=O)O[C@@H]2CN3CCC2CC3)cc1F` [Example 33, (S)-quinuclidin-3-yl((R)-5-(4-ethyl-3-fluorophenyl)-2,2-dimethyl-2,3-dihydro-1H-inden-1-yl)carbamate] were, in that order, 7.3 nM and 0.97 nM.
As to `CC1(C)Cc2cc(-c3ccc(OCC4CC4)cc3Cl)c(F)cc2[C@@H]1NC(=O)O[C@@H]1CN2CCC1CC2` [Example 98, (S)-quinuclidin-3-yl((R)-5-(2-chloro-4-(cyclopropylmethoxy)phenyl)-6-fluoro-2,2-dimethyl-2,3-dihydro-1H-inden-1-yl)carbamate], the IC50 in test [1] amounted to 0.2 nM; in test [2], 0.06 nM.
In the case of `CCCc1ccc(-c2cc3c(cc2OCC)[C@H](NC(=O)O[C@@H]2CN4CCC2CC4)C(C)(C)C3)cc1` [Example 128, (S)-quinuclidin-3-yl((R)-6-ethoxy-2,2-dimethyl-5-(4-propylphenyl)-2,3-dihydro-1H-inden-1-yl)carbamate], the IC50 in test [1] is 6.49 nM; in test [2] it was 1.8 nM.
In the case of `CC(C)(C)Oc1ccc(-c2ccc3c(c2)CC(C)(C)[C@H]3NC(=O)O[C@@H]2CN3CCC2CC3)c(Cl)c1` [Example 42, (S)-quinuclidin-3-yl((R)-5-(4-(tert-butoxy)-2-chlorophenyl)-2,2-dimethyl-2,3-dihydro-1H-inden-1-yl)carbamate], the 50% inhibitory concentration (IC50) was found to be 2.6 nM in test [1] and 0.3 nM in test [2].
The matching figures for `CCCc1cccc(-c2cc3c(cc2F)[C@H](NC(=O)O[C@@H]2CN4CCC2CC4)C(C)(C)CC3)c1` [Example 188, (S)-quinuclidin-3-yl((R)-7-fluoro-2,2-dimethyl-6-(3-propylphenyl)-1,2,3,4-tetrahydronaphthalen-1-yl)carbamate]: 2.7 nM and 0.84 nM.
`CCOc1c(C)cc(-c2ccc3c(c2)CCC(C)(C)[C@H]3NC(=O)O[C@@H]2CN3CCC2CC3)cc1C` [Example 164, (S)-quinuclidin-3-yl((R)-6-(4-ethoxy-3,5-dimethylphenyl)-2,2-dimethyl-1,2,3,4-tetrahydronaphthalen-1-yl)carbamate]: the IC50 in test [1] is 8.4 nM; in test [2] it was 1.39 nM.
`Cc1cc2c(cc1-c1ccc(C(C)C)cc1)CC(C)(C)[C@H]2NC(=O)O[C@@H]1CN2CCC1CC2` [Example 117, (S)-quinuclidin-3-yl((R)-5-(4-isopropylphenyl)-2,2,6-trimethyl-2,3-dihydro-1H-inden-1-yl)carbamate]: the IC50 is 4.42 nM in test [1] and 0.47 nM in test [2].
`CCCCOc1ccc(-c2ccc3c(c2)CCC(C)(C)[C@H]3NC(=O)O[C@@H]2CN3CCC2CC3)cc1` [Example 145, (S)-quinuclidin-3-yl((R)-6-(4-butoxyphenyl)-2,2-dimethyl-1,2,3,4-tetrahydronaphthalen-1-yl)carbamate]: the 50% inhibitory concentration (IC50) in test [1] was 0.3 nM; in test [2], 0.29 nM.
The like results for `CCc1ccc(-c2cc3c(cc2C)[C@H](NC(=O)O[C@@H]2CN4CCC2CC4)C(C)(C)C3)cc1` [Example 115, (S)-quinuclidin-3-yl((R)-5-(4-ethylphenyl)-2,2,6-trimethyl-2,3-dihydro-1H-inden-1-yl)carbamate] were, in that order, 5.09 nM and 0.43 nM.
The like results for `CC1(C)Cc2cc(-c3ccc(OCC(F)(F)F)cc3Cl)ccc2[C@@H]1NC(=O)O[C@@H]1CN2CCC1CC2` [Example 55, (S)-quinuclidin-3-yl((R)-5-(2-chloro-4-(2,2,2-trifluoroethoxy)phenyl)-2,2-dimethyl-2,3-dihydro-1H-inden-1-yl)carbamate] were, in that order, 2.2 nM and 0.63 nM.
The matching figures for `CCc1ccc(-c2cc3c(cc2F)[C@H](NC(=O)O[C@@H]2CN4CCC2CC4)C(C)(C)CC3)cc1` [Example 170, (S)-quinuclidin-3-yl((R)-6-(4-ethylphenyl)-7-fluoro-2,2-dimethyl-1,2,3,4-tetrahydronaphthalen-1-yl)carbamate]: 1.4 nM and 0.31 nM.
Turning to `CCCCOc1cccc(-c2cc3c(cc2F)[C@H](NC(=O)O[C@@H]2CN4CCC2CC4)C(C)(C)CC3)c1` [Example 186, (S)-quinuclidin-3-yl((R)-6-(3-butoxyphenyl)-7-fluoro-2,2-dimethyl-1,2,3,4-tetrahydronaphthalen-1-yl)carbamate], the IC50 was 0.71 nM in test [1] and 0.46 nM in test [2].
For the compound `Cc1cc2c(cc1-c1ccc(OCC(C)C)cc1)CC(C)(C)[C@H]2NC(=O)O[C@@H]1CN2CCC1CC2` [Example 124, (S)-quinuclidin-3-yl((R)-5-(4-isobutoxyphenyl)-2,2,6-trimethyl-2,3-dihydro-1H-inden-1-yl)carbamate], the IC50 in test [1] stood at 1.13 nM; in test [2], 0.2 nM.
For the compound `CCCCOc1ccc(-c2cc3c(cc2F)[C@H](NC(=O)O[C@@H]2CN4CCC2CC4)C(C)(C)C3)cc1Cl` [Example 88, (S)-quinuclidin-3-yl((R)-5-(4-butoxy-3-chlorophenyl)-6-fluoro-2,2-dimethyl-2,3-dihydro-1H-inden-1-yl)carbamate], the IC50 in test [1] turned out to be 21.1 nM; in test [2] it was 0.779 nM.
As to `CC(C)(C)Oc1ccc(-c2cc3c(cc2F)[C@H](NC(=O)O[C@@H]2CN4CCC2CC4)C(C)(C)C3)cc1` [Example 101, (S)-quinuclidin-3-yl((R)-5-(4-(tert-butoxy)phenyl)-6-fluoro-2,2-dimethyl-2,3-dihydro-1H-inden-1-yl)carbamate], the results for the IC50 in test [1] and in test [2] were 4.67 nM and 0.38 nM, respectively.
The like results for `Cc1cc2c(cc1-c1ccc(OC(C)C)c(Cl)c1)CC(C)(C)[C@H]2NC(=O)O[C@@H]1CN2CCC1CC2` [Example 125, (S)-quinuclidin-3-yl((R)-5-(3-chloro-4-isopropoxyphenyl)-2,2,6-trimethyl-2,3-dihydro-1H-inden-1-yl)carbamate] were, in that order, 10.8 nM and 2.17 nM.
As to `COc1ccc(-c2ccc3c(c2)CCC(C)(C)[C@H]3NC(=O)O[C@@H]2CN3CCC2CC3)cc1` [Example 166, (S)-quinuclidin-3-yl((R)-6-(4-methoxyphenyl)-2,2-dimethyl-1,2,3,4-tetrahydronaphthalen-1-yl)carbamate], the half-maximal inhibitory concentration (IC50) stood at 5.9 nM in test [1] and 0.69 nM in test [2].
Regarding `Cc1cc(-c2cc3c(cc2F)[C@H](NC(=O)O[C@@H]2CN4CCC2CC4)C(C)(C)CC3)cc(C)c1OC(C)C` [Example 182, (S)-quinuclidin-3-yl((R)-7-fluoro-6-(4-isopropoxy-3,5-dimethylphenyl)-2,2-dimethyl-1,2,3,4-tetrahydronaphthalen-1-yl)carbamate], the IC50 in test [1] is 12.9 nM; in test [2], 3.1 nM.
As for `CC(C)Oc1cc(F)cc(-c2cc3c(cc2F)[C@H](NC(=O)O[C@@H]2CN4CCC2CC4)C(C)(C)C3)c1` [Example 108, (S)-quinuclidin-3-yl((R)-6-fluoro-5-(3-fluoro-5-isopropoxyphenyl)-2,2-dimethyl-2,3-dihydro-1H-inden-1-yl)carbamate], the results for the 50% inhibitory concentration (IC50) in test [1] and in test [2] were 31.6 nM and 1.06 nM, respectively.
On to `CCCCOc1c(C)cc(-c2cc3c(cc2F)[C@H](NC(=O)O[C@@H]2CN4CCC2CC4)C(C)(C)CC3)cc1C` [Example 183, (S)-quinuclidin-3-yl((R)-6-(4-butoxy-3,5-dimethylphenyl)-7-fluoro-2,2-dimethyl-1,2,3,4-tetrahydronaphthalen-1-yl)carbamate], for which the figures for the IC50 in test [1] and in test [2] were 7.6 nM and 1.6 nM, respectively.
Consider `CCCCc1ccc(-c2cc3c(cc2C)[C@H](NC(=O)O[C@@H]2CN4CCC2CC4)C(C)(C)C3)cc1` [Example 118, (S)-quinuclidin-3-yl((R)-5-(4-butylphenyl)-2,2,6-trimethyl-2,3-dihydro-1H-inden-1-yl)carbamate], for which the half-maximal inhibitory concentration (IC50) in test [1] was determined as 1.55 nM; in test [2] it was 0.2 nM.
